In US10308650B2, “Pesticidally active tetracyclic derivatives with sulfur containing substituents” (Syngenta Participations AG, priority 2014, dated 2019):
Like-named read-outs stand apart in the source and are kept apart here.

Assays:
Format in all cases: in vivo
[1] = tested on: Bemisia tabaci (Cotton White Fly); assay: Activity against Bemisia tabaci: feeding/contact activity; conditions: foliar, 144 h, application rate of 200 ppm, cotton leaf discs, adult white flies, 6 days after incubation
Method: Example B1: Activity Against Bemisia tabaci (Cotton White Fly): Feeding/Contact Activity
Cotton leaf discs were placed on agar in 24-well microtiter plates and sprayed with aqueous test solutions prepared from 10,000 ppm DMSO stock solutions. After drying the leaf discs were infested with adult white flies. The samples were checked for mortality 6 days after incubation.

[2] = tested on: Diabrotica balteata (Corn Root Worm); assay: Activity against Diabrotica balteata; conditions: 96 h, read-out: effect in at least one of the two categories (mortality or growth inhibition); for percent effect (mortality or growth inhibition) at 200 ppm: application rate of 200 ppm, maize sprouts, L2 larvae, 4 days after infestation
Method: Example B2: Activity Against Diabrotica balteata (Corn Root Worm)
Maize sprouts placed onto an agar layer in 24-well microtiter plates were treated with aqueous test solutions prepared from 10,000 ppm DMSO stock solutions by spraying. After drying, the plates were infested with L2 larvae (6 to 10 per well). The samples were assessed for mortality and growth inhibition in comparison to untreated samples 4 days after infestation.

[3] = tested on: Euschistus heros (Neotropical Brown Stink Bug); assay: Activity against Euschistus heros; conditions: 120 h, read-out: effect in at least one of the two categories (mortality or growth inhibition); for percent effect (mortality or growth inhibition) at 200 ppm: application rate of 200 ppm, soybean leaves, N2 nymphs, 5 days after infestation
Method: Example B3: Activity Against Euschistus heros (Neotropical Brown Stink Bug)
Soybean leaves on agar in 24-well microtiter plates were sprayed with aqueous test solutions prepared from 10,000 ppm DMSO stock solutions. After drying the leaves were infested with N2 nymphs. The samples were assessed for mortality and growth inhibition in comparison to untreated samples 5 days after infestation.

[4] = tested on: Myzus persicae (Green Peach Aphid); assay: Activity against Myzus persicae: feeding/contact activity; conditions: foliar, 144 h
Method: Example B5: Activity Against Myzus persicae (Green Peach Aphid): Feeding/Contact Activity
Sunflower leaf discs were placed onto agar in a 24-well microtiter plate and sprayed with aqueous test solutions prepared from 10,000 ppm DMSO stock solutions. After drying, the leaf discs were infested with an aphid population of mixed ages. The samples were assessed for mortality 6 days after infestation.

[5] = tested on: Plutella xylostella (Diamond Back Moth); assay: Activity against Plutella xylostella; conditions: 120 h, read-out: effect in at least one of the two categories (mortality or growth inhibition); for percent effect (mortality or growth inhibition) at 200 ppm: application rate of 200 ppm, artificial diet, L2 larvae, 5 days after infestation
Method: Example B8: Activity Against Plutella xylostella (Diamond Back Moth)
24-well microtiter plates with artificial diet were treated with aqueous test solutions prepared from 10,000 ppm DMSO stock solutions by pipetting. After drying, the plates were infested with L2 larvae (10 to 15 per well). The samples were assessed for mortality and growth inhibition in comparison to untreated samples 5 days after infestation.

[6] = tested on: Spodoptera littoralis (Egyptian Cotton Leaf Worm); assay: Activity against Spodoptera littoralis (cotton leaf discs, spray); conditions: foliar, 72 h, read-out: control (mortality, anti-feeding effect, growth inhibition)
Method: Example B9: Activity Against Spodoptera littoralis (Egyptian Cotton Leaf Worm)
Cotton leaf discs were placed onto agar in 24-well microtiter plates and sprayed with aqueous test solutions prepared from 10,000 ppm DMSO stock solutions. After drying the leaf discs were infested with five L1 larvae. The samples were assessed for mortality, anti-feeding effect, and growth inhibition in comparison to untreated samples 3 days after infestation. Control of Spodoptera littoralis by a test sample is given when at least one of the categories mortality, anti-feedant effect, and growth inhibition is higher than the untreated sample.

[7] = tested on: Spodoptera littoralis (Egyptian Cotton Leaf Worm); assay: Activity against Spodoptera littoralis (lettuce, uptake by the roots from agar); conditions: 144 h, test rate of 12.5 ppm, lettuce grown on treated agar, Spodoptera eggs, 6 days after infestation, read-out: effect in at least one of the three categories (mortality, anti-feeding, or growth inhibition)
Excerpt: Example B10: Activity Against Spodoptera littoralis (Egyptian Cotton Leaf Worm)
Test compounds were applied by pipette from 10,000 ppm DMSO stock solutions into 24-well plates and mixed with agar. Lettuce seeds were placed onto the agar and the multi well plate was closed by another plate which contained also agar. After 7 days the compound was absorbed by the roots and the lettuce grew into the lid plate. The lettuce leaves were then cut off into the lid plate. Spodoptera eggs were pipetted through a plastic stencil onto a humid gel blotting paper and the lid plate was closed with it. The samples were assessed for mortality, anti-feedant effect and growth inhibition in comparison to untreated samples 6 days after infestation.

[8] = tested on: Aedes aegypti (Yellow Fever Mosquito); assay: Activity against Aedes aegypti; conditions: 200 ppm in ethanol, dry deposit in 12 well plates, adult females, after 48 h and/or 24 h
Method: Example B13: Activity Against Aedes aegypti (Yellow Fever Mosquito)
Test solutions, at an application rate of 200 ppm in ethanol, were applied to 12 well tissue culture plates. Once the deposits were dry, five, two to five day old adult female Aedes aegypti were added to each well, and sustained with a 10% sucrose solution in a cotton wool plug. Assessment of knockdown was made one hour after introduction, and mortality was assessed at 24 and 48 hours after introduction.

[9] = tested on: Myzus persicae (Green Peach Aphid); assay: Activity against Myzus persicae: intrinsic activity; conditions: 120 h
Excerpt: Example B7: Activity Against Myzus persicae (Green Peach Aphid). Intrinsic Activity
Test compounds prepared from 10,000 ppm DMSO stock solutions were applied by pipette into 24-well microtiter plates and mixed with sucrose solution. The plates were closed with a stretched Parafilm. A plastic stencil with 24 holes was placed onto the plate and infested pea seedlings were placed directly on the Parafilm. The infested plate was closed with a gel blotting paper and another plastic stencil and then turned upside down. The samples were assessed for mortality 5 days after infestation.

[10] = tested on: Myzus persicae (Green Peach Aphid); assay: Activity against Myzus persicae: systemic activity; conditions: 144 h, test rate of 24 ppm, roots of infested pea seedlings in test solution, 6 days, read-out: mortality
Method: Example B6: Activity Against Myzus persicae (Green Peach Aphid). Systemic Activity
Roots of pea seedlings infested with an aphid population of mixed ages were placed directly into aqueous test solutions prepared from 10,000 DMSO stock solutions. The samples were assessed for mortality 6 days after placing seedlings into test solutions.

[11] = application rate of 200 ppm, sunflower leaf discs, aphid population of mixed ages, 6 days after infestation, read-out: mortality
[12] = application rate of 200 ppm, cotton leaf discs, L1 larvae, 3 days after infestation
[13] = test rate of 12 ppm, sucrose solution under Parafilm, 5 days after infestation, read-out: mortality

CCS(=O)(=O)c1cc2cc(C#N)ccc2nc1-c1nc2cc(C(F)(F)F)ncc2n1C [Compound A50, 3-ethylsulfonyl-2-[3-methyl-6-(trifluoromethyl)imidazo[4,5-c]pyridin-2-yl]quinoline-6-carbonitrile]
≥ 80%: mortality at 200 ppm [1] | percent effect (mortality or growth inhibition) at 200 ppm [2] | percent effect (mortality or growth inhibition) at 200 ppm [3] | mortality at 200 ppm [4, 11] | percent effect (mortality or growth inhibition) at 200 ppm [5] | mortality at 200 ppm [6, 12] | percent effect (mortality, anti-feeding or growth inhibition) at 12.5 ppm [7]

CCS(=O)(=O)c1cc2cc(C(F)(F)C(F)(F)F)ccc2nc1-c1nc2cc(C(F)(F)F)ncc2n1C [Compound A52, 3-ethylsulfonyl-2-[3-methyl-6-(trifluoromethyl)imidazo[4,5-c]pyridin-2-yl]-6-(1,1,2,2,2-pentafluoroethyl)quinoline]
≥ 80%: percent effect (mortality or growth inhibition) at 200 ppm [2] | percent effect (mortality or growth inhibition) at 200 ppm [3] | percent effect (mortality or growth inhibition) at 200 ppm [5] | mortality at 200 ppm [6, 12] | pest or weed control at 200 ppm [8]

CCSc1cc2ccccc2nc1-c1nc2cc(C(F)(F)F)ncc2n1C [Compound A21, 3-ethylsulfanyl-2-[3-methyl-6-(trifluoromethyl)imidazo[4,5-c]pyridin-2-yl]quinolone]
≥ 80%: percent control (mortality or growth inhibition) at 200 ppm [2] | percent control (mortality or growth inhibition) at 200 ppm ([3]; in Glycine max) | mortality at 200 ppm [4] | mortality at 12 ppm [9] | percent control (mortality or growth inhibition) at 200 ppm [5] | mortality at 200 ppm [6]

CCS(=O)(=O)c1cc2ccccc2cc1-c1nc2cc(C(F)(F)F)cnc2n1C [Compound A3, 2-(3-ethylsulfonyl-2-naphthyl)-3-methyl-6-(trifluoromethyl)imidazo[4,5-b]pyridine]
≥ 80%: percent effect (mortality or growth inhibition) at 200 ppm [2] | percent effect (mortality or growth inhibition) at 200 ppm [3] | mortality at 200 ppm [4, 11] | mortality at 12 ppm [9, 13] | percent effect (mortality or growth inhibition) at 200 ppm [5] | mortality at 200 ppm [6, 12]

CCSc1cc2c(cc1-c1nc3cc(C(F)(F)F)ncc3n1C)nc(C(F)(F)F)n2C [Compound A39, 2-[6-ethylsulfanyl-1-methyl-2-(trifluoromethyl)benzimidazol-5-yl]-3-methyl-6-(trifluoromethyl)imidazo[4,5-c]pyridine]
≥ 80%: percent effect (mortality or growth inhibition) at 200 ppm [2] | percent effect (mortality or growth inhibition) at 200 ppm [5] | pest or weed control at 200 ppm [8]

CCSc1cc2ccccc2cc1-c1nc2cc(C(F)(F)F)ncc2n1C [Compound A23, 2-(3-ethylsulfanyl-2-naphthyl)-3-methyl-6-(trifluoromethyl)imidazo[4,5-c]pyridine]
≥ 80%: percent effect (mortality or growth inhibition) at 200 ppm [2] | percent effect (mortality or growth inhibition) at 200 ppm [3] | mortality at 200 ppm [4, 11] | mortality at 12 ppm [9, 13] | percent effect (mortality or growth inhibition) at 200 ppm [5]

CCS(=O)(=O)c1cc2nc(C(F)(F)F)n(C)c2cc1-c1nc2cc(C(F)(F)F)ncc2n1C [Compound A8, 2-[6-ethylsulfonyl-3-methyl-2-(trifluoromethyl)benzimidazol-5-yl]-3-methyl-6-(trifluoromethyl)imidazo[4,5-c]pyridine]
≥ 80%: mortality at 200 ppm [1] | percent effect (mortality or growth inhibition) at 200 ppm [2] | percent effect (mortality or growth inhibition) at 200 ppm [3] | mortality at 200 ppm [4, 11] | mortality at 24 ppm [10] | percent effect (mortality or growth inhibition) at 200 ppm [5] | pest or weed control at 200 ppm [8]
